In paper PMC4753485, “Selective potentiation of 2-APB-induced activation of TRPV1–3 channels by acid” (Scientific Reports, 2016):
Several values for one entry are separate records, joined by “and”; a condition that tells them apart may be missing. Equal entries are not always repeated. Where two headings read alike, the source gives them in different places.

How the values were obtained:
[1] = system: TRPV3 linker 2–3 mutants (L508R, D512N, S518V, A520S); details: 100 μM 2-APB; whole-cell and inside-out; after sensitization with 500 μM 2-APB
Source text: (§1) Full-length cDNA for murine TRPV3 was isolated and subcloned into pIRES2-EGFP, as previously described. The wild-type rat TRPV1, TRPV2 and TRPM8 cDNAs were generously provided by Dr. Feng Qin (State University of New York at Buffalo, Buffalo). All mutations were made using either QuikChange® XL site-directed mutagenesis kit (Agilent Technologies) or the overlap-extension polymerase chain reaction (PCR) method as previously described. The resulting mutations were verified by DNA sequencing. HEK293 cells were grown in DMEM containing 4.5 mg/ml glucose, 10% heat-inactivated fetal bovine serum, 50 units/ml penicillin, and 50 μg/ml streptomycin. For electrophysiological experiments, cells were seeded in 35 mm culture dishes and transfected with the desired DNA constructs using Lipofectamine 2000 (Invitrogen) following the protocol provided by the manufacturer. Stable TRPV3 expressing cells were selected in the G418-containing medium. […]
(§2) Transfected HEK293 cells were reseeded on 12 mm round glass coverslips (Warner Instruments) one day after transfection. […] Voltage commands were made from the Patchmaster program, and the currents were recorded at 5 kHz. […] As determined by the conductance tests, the solution around a patch under study was fully controlled by the application of a solution with a flow rate of 100 μl/min or greater. […]

[2] = target: T1, TRPV3 (Mus musculus, UniProt Q8K424); assay: cell-based
Source text: (§3) Full-length cDNA for murine TRPV3 was isolated and subcloned into pIRES2-EGFP, as previously described. The wild-type rat TRPV1, TRPV2 and TRPM8 cDNAs were generously provided by Dr. Feng Qin (State University of New York at Buffalo, Buffalo). All mutations were made using either QuikChange® XL site-directed mutagenesis kit (Agilent Technologies) or the overlap-extension polymerase chain reaction (PCR) method as previously described. The resulting mutations were verified by DNA sequencing. HEK293 cells were grown in DMEM containing 4.5 mg/ml glucose, 10% heat-inactivated fetal bovine serum, 50 units/ml penicillin, and 50 μg/ml streptomycin. For electrophysiological experiments, cells were seeded in 35 mm culture dishes and transfected with the desired DNA constructs using Lipofectamine 2000 (Invitrogen) following the protocol provided by the manufacturer. Stable TRPV3 expressing cells were selected in the G418-containing medium. For intracellular Ca^2+ measurements, cells were transfected with the desired DNA constructs in the wells of 96-well plates without pre-seeding using Lipofectamine 2000 (Invitrogen) as described.

[3] = target: TRPM8 (Rattus norvegicus, UniProt Q8R455); assay: cell-based; details: for IC50: IC50 for inhibition of menthol-evoked TRPM8 current, 100 μM menthol
Source text: as §3
(§4) Transfected HEK293 cells were reseeded on 12 mm round glass coverslips (Warner Instruments) one day after transfection. Whole-cell recordings were performed the following day. Recording pipettes were pulled from borosilicate glass capillaries (Sutter or World Precision Instruments) to 2–4 MΩ when filled with internal solution containing (in mM) 140 CsCl, 2.0 MgCl2, 5 EGTA, 10 HEPES, pH 7.4. Bathing solution contained (in mM) 140 NaCl, 5 KCl, 5 EGTA, 1 MgCl2, 10 glucose and 10 HEPES, pH 7.4. Isolated cells were voltage clamped in the whole-cell mode using an EPC10 amplifier (HEKA Instruments Inc). Voltage commands were made from the Patchmaster program, and the currents were recorded at 5 kHz. […] Whole-cell recordings were typically sampled at 5 kHz and filtered at 1 kHz. The compensation of pipette series resistance and capacitance were taken by using the built-in circuitry of the amplifier (>80%) to reduce voltage errors. Exchange of external solutions was performed using a gravity-driven local perfusion system (Automate Scientific). Channel activators were diluted into the recording solution at the desired final concentrations and applied to the cell through perfusion. As determined by the conductance tests, the solution around a patch under study was fully controlled by the application of a solution with a flow rate of 100 μl/min or greater. […] The acidic solutions contained (in mM): 140 NaCl, 5 KCl, 5 EGTA, 1 MgCl2, 10 glucose, and 10 MES, with pH adjusted to desired values by NaOH. For inside-out recordings, both the pipette solution and bath solution contained (in mM) 140 NaCl, 5 KCl, 5 EGTA, 1 MgCl2, 10 HEPES, pH 7.4. Excised patches were held constantly at desired potentials while compounds were repetitively applied and washed from the bath. For recordings from HEK293 cells under acidic pH conditions, the solution also contained 50 μM amiloride as an inhibitor of the native ASIC channels. Camphor was purchased from Acros (New Jersey, USA). Diphenyl borate (DPB) was synthesized by Beijing Realchem Technology Company (Beijing, China). Other chemicals were purchased from Sigma (Sigma, St. Louis, MO). Water-insoluble reagents were dissolved in either 100% ethanol or DMSO to make stock solutions and were diluted in the bathing solution at appropriate concentrations before experiments. […] All experiments except those for heat activation were performed at room temperature (22–24 °C).

[4] = target: TRPV2 (Rattus norvegicus, UniProt Q9WUD2); assay: cell-based; details: for EC50: EC50 of 2-APB-evoked TRPV2 whole-cell current
Source text: as §3, §4

[5] = target: T2, TRPV1 (Rattus norvegicus, UniProt O35433); assay: Inside-out patch recordings from TRPV1-expressing HEK293 cells; format: cell-based; details: +60 mV
T2 construct: expressed in transfected cells; host or cells: HEK293
Source text: as §1, §2

[6] = no reference given; cited from earlier work
[7] = target: T3, TRPV1(E600Q/T633A) (Rattus norvegicus, UniProt O35433, E600Q/T633A); assay: Whole-cell recordings of TRPV1(E600Q/T633A) in HEK293 cells; format: cell-based; details: −60 mV
T3 construct: expressed in transfected cells; host or cells: HEK293
Source text: as §1, §2

[8] = 1H-NMR and mass spectrometry of compounds in solution; details: 1H-NMR in PBS and mass spectrometry
Method: The solution NMR samples were prepared at the final concentration of 1 mM for the test compound in PBS at three different pH values (5.5, 7.4 and 8.5). […] One-dimensional (1D) ^1H NMR spectra were collected with 2-s delays using a standard Varian 1D watergate pulse sequence. Two-dimensional (2D) ^1H NMR TOCSY (mixing time 100 ms) and NOESY (mixing time 500 ms) spectra were collected using standard Varian TOCSY and NOESY pulse sequences. All spectra were processed using NMRPipe[45] with 1D ^1H spectra analyzed using ACD/NMR Processor (www.acdlabs.com) while 2D ^1H spectra analyzed using SPARKY[46]. In TOCSY, cross-peaks were potentially generated between all resonances within a spin system, while in NOESY, the integrated intensity of a given cross-peak was interpreted in terms of the distance between the two hydrogen atoms that gave rise to the peak.
The molecular mass was then measured by using positive and negative ion electrospray ionization mass spectrometry (ESI-MS, Thermo Fisher Scientific Inc., Waltham, MA).

[9] = target: T1, TRPV3; details: 32 °C
Source text: as §3

[10] = target: T4, mouse TRPV3 (Mus musculus, UniProt Q8K424); assay: Whole-cell recordings of TRPV3 currents in HEK293 cells; format: cell-based; details: for EC50: EC50 of 2-APB-evoked TRPV3 whole-cell current, Vh −60 mV; for EC50 / Hill coefficient nH of 2-APB concentration-response: after full sensitization
T4 construct: Full-length cDNA for murine TRPV3 was isolated and subcloned into pIRES2-EGFP; expressed in transfected cells; host or cells: HEK293 (transient)
T4 sequence (Q8K424 1-791): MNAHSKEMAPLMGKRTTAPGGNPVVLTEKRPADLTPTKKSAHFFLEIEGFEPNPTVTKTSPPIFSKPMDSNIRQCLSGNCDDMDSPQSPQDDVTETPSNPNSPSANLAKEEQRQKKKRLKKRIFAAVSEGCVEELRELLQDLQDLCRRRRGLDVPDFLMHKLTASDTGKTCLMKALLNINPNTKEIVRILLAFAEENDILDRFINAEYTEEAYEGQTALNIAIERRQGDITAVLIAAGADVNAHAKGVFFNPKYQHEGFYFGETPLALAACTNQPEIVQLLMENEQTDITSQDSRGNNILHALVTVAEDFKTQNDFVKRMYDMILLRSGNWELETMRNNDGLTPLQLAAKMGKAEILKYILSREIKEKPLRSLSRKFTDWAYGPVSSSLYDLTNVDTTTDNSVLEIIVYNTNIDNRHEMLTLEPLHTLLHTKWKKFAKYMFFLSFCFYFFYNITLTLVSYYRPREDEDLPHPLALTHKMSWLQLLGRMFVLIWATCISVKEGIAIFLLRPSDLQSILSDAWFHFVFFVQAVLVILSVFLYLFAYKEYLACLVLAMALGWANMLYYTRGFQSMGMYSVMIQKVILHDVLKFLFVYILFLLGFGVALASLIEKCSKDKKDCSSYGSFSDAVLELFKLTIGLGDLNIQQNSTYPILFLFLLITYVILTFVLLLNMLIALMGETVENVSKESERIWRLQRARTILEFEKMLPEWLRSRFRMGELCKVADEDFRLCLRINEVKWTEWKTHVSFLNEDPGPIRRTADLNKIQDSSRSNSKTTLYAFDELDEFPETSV
Method: The resulting mutations were verified by DNA sequencing.
Whole-cell recordings were performed the following day. […] Camphor was purchased from Acros (New Jersey, USA).

Sequence of TRPV2 (Q9WUD2 whole entry): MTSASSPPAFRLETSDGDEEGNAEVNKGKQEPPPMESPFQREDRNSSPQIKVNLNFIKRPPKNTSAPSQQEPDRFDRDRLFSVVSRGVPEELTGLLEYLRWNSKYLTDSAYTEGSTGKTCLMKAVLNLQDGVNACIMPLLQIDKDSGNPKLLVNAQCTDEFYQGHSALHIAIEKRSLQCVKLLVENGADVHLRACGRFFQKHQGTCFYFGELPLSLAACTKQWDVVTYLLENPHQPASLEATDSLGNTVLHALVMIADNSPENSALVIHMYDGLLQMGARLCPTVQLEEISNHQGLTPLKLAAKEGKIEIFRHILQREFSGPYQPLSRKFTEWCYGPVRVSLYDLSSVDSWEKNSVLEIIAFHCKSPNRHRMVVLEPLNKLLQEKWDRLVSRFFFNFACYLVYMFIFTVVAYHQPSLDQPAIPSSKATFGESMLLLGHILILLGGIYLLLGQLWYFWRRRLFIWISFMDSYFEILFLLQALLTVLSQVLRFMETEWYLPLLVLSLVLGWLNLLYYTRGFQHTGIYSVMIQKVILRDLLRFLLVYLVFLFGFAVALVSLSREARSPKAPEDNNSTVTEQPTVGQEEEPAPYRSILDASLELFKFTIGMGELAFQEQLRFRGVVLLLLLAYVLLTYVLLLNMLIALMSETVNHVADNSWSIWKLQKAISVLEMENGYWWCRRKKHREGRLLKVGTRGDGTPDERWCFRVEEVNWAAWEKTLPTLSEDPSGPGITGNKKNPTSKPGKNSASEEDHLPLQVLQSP
Sequence of TRPM8 (Q8R455 whole entry): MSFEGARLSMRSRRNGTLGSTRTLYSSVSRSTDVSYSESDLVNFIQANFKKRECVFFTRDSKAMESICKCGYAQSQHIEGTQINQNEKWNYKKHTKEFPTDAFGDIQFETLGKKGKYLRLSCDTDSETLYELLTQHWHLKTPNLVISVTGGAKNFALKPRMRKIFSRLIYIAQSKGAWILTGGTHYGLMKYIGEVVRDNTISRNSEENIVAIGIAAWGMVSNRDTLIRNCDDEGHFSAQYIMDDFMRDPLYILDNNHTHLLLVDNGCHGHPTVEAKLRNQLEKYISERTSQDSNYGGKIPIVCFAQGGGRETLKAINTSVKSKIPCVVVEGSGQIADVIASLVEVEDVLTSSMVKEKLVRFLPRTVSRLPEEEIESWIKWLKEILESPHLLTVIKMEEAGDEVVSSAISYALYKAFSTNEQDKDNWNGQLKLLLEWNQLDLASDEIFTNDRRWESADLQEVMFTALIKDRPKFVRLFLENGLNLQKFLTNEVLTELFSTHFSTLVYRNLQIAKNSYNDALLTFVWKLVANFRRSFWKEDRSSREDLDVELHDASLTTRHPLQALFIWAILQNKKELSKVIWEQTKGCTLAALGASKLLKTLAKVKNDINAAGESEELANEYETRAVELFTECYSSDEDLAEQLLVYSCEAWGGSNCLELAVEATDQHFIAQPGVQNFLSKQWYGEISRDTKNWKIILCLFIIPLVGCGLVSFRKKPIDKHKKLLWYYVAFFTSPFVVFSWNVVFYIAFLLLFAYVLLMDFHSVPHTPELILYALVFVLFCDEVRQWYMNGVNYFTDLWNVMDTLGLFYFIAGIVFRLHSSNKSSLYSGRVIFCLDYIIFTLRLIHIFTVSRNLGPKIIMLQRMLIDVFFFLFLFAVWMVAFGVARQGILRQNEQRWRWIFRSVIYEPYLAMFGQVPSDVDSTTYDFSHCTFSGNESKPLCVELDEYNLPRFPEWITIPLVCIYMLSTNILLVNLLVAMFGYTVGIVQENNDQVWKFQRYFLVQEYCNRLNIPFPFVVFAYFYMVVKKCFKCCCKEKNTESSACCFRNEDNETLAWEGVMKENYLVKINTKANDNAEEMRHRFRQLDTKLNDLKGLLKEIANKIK
T2 sequence (O35433 whole entry): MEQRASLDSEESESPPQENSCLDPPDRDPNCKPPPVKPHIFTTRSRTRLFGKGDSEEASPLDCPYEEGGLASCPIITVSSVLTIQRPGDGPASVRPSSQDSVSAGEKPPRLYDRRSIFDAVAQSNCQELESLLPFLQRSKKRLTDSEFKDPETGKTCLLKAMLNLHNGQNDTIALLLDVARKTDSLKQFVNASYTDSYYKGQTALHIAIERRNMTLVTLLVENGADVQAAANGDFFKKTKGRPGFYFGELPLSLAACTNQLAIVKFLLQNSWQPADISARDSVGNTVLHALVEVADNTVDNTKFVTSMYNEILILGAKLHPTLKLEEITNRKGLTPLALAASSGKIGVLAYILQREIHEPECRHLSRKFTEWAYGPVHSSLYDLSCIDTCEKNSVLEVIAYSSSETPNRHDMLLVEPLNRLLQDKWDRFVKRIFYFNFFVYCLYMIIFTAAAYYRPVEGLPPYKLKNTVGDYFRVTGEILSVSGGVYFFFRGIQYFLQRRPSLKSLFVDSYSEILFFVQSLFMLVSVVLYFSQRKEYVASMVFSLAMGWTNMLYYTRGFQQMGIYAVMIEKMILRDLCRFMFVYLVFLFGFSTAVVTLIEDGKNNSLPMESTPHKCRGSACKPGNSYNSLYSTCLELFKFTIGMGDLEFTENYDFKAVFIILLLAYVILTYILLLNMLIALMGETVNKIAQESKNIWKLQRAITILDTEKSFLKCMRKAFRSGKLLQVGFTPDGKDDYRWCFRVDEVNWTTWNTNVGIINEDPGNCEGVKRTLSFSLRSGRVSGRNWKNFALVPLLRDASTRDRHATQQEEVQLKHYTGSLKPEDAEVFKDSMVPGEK
T3 sequence (O35433 whole entry E600Q/T633A): as the sequence (O35433 whole entry) above, with E600Q, T633A counted along it

NCCOB(c1ccccc1)c1ccccc1 [2-APB, 2-aminoethoxydiphenyl borate]
Effect of low pH (5.5) on response to 2-APB in mutant channels [1]: greatly increased | EC50 [2]: 8.8 ± 1.5 µM | Drop of cytosolic pH ([2]; 300 μM 2-APB): ~ 0.35 pH unit | inhibition at 10 µM ([3]; HEK293, pH 5.5, read-out: Inhibition of menthol-evoked TRPM8 current): 84 ± 2% | inhibition at 10 µM ([3]; HEK293, pH 6, read-out: Inhibition of menthol-evoked TRPM8 current): 69 ± 3% | inhibition at 10 µM ([3]; HEK293, pH 7.4, read-out: Inhibition of menthol-evoked TRPM8 current): 24 ± 2% | IC50 ([3]; pH 5.5): 3.1 µM and 3.07 µM | IC50 ([3]; pH 7.4): 20.5 µM | Hill coefficient nH of inhibition curve ([3]; pH 5.5): 1.5 ± 0.1 and 1.49 ± 0.08 | Hill coefficient nH of inhibition curve ([3]; pH 7.4): 1.4 ± 0.3 and 1.41 ± 0.28 | EC50 ([4]; pH 5.5): 112 ± 1.2 µM | EC50 ([4]; pH 7.4): 522 ± 10.2 µM | Hill coefficient nH of 2-APB concentration-response ([4]; pH 5.5): 5.2 ± 0.3 and 5.26 ± 0.35 | Hill coefficient nH of 2-APB concentration-response ([4]; pH 7.4): 4.3 ± 0.3 and 4.34 ± 0.35 | Increase of peak current at pH 5.5 over pH 7.4, cytoplasmic side ([5]; 100 μM 2-APB): more than 2 fold | pKa of the amino group [6]: 9.6 | Effect of lowering extracellular pH to 5.5 on response ([7]; 10 μM 2-APB): strongly enhanced | Stability in solution [8]: easily hydrolyzed to DPB | Effect of reducing extracellular pH to 5.5 on Ca2+ response ([9]; 166 μM 2-APB): not further increased | Effect of reducing extracellular pH to 5.5 on Fluo-4 fluorescence intensity ([9]; low to moderate 2-APB concentrations (6–55 μM)): markedly enhanced | Half-maximal pH of 2-APB-activated TRPV3 currents ([10]; 10 μM 2-APB, pH 8.5 to 4.5, after sensitization with 100 μM 2-APB): 6.70 ± 0.02 | EC50 ([10]; pH 5.5): 3.3 µM and 3.34 µM | EC50 ([10]; pH 7.4): 36.2 ± 2.1 µM | Hill coefficient nH of 2-APB concentration-response ([10]; pH 5.5): 2.0 ± 0.3 and 1.98 ± 0.34 | Hill coefficient nH of 2-APB concentration-response ([10]; pH 7.4): 1.8 ± 0.2 and 1.76 ± 0.17

c1ccc(B(OB(c2ccccc2)c2ccccc2)c2ccccc2)cc1 [DPBA, diphenylboronic anhydride]
Stability in solution [8]: easily hydrolyzed to DPB | Increase of evoked current by acid (pH 5.5) ([10]; 5 μM DPBA, after sensitization with 30 μM DPBA): ~ 7 fold

OB(c1ccccc1)c1ccccc1 [DPB]
Increase of evoked current by acidic pH (5.5 versus 7.4) ([10]; 10 μM DPB, after sensitization with 100 μM 2-APB): about 5 fold

OC(c1ccccc1)c1ccccc1 [DPM, diphenyl methanol]
TRPV3 current elicited ([10]; pH 7.4 (30 or 500 μM) or pH 5.5 (30 μM only), after sensitization with 100 μM 2-APB): no detectable current

CC12CCC(CC1=O)C2(C)C (stereo not drawn) [camphor]
Effect of acid (pH 5.5) on evoked TRPV3 current ([10]; 3 mM camphor, after sensitization with 100 μM 2-APB): slowed down the current development

COc1cc(CNC(=O)CCCC/C=C/C(C)C)ccc1O [capsaicin]
Effect of intracellular acid (pH 5.5) on evoked current ([5]; 0.1 μM capsaicin): did not enhance | Decrease of elicited current by lowering extracellular pH to 5.5 ([7]; 0.01 μM capsaicin): nearly one-half

CC1CCC(C(C)C)C(O)C1 (stereo not drawn) [menthol]
inhibition at 1000 µM ([10]; HEK293, pH 5.5, read-out: Inhibition of evoked TRPV3 current by acid (pH 5.5)): ~48%
